Measurements from ChEMBL document CHEMBL1275550, “In vitro activity of doripenem, a carbapenem for the treatment of challenging infections caused by gram-negative bacteria, against recent clinical isolates from the United States” (2008).
Values after ≈ are worked out from the molar mass of the structure shown.

Legend:
Enterobacteriaceae [1] = assay: Antimicrobial activity against Enterobacteriaceae by broth microdilution method; type: functional
Enterobacteriaceae [2] = assay: Antimicrobial activity against ceftazidime-susceptible Enterobacteriaceae by broth microdilution method; type: functional
Enterobacteriaceae [3] = assay: Antimicrobial activity against Enterobacteriaceae assessed as susceptible isolate by broth microdilution method; type: functional
Enterobacteriaceae [4] = assay: Antimicrobial activity against ceftazidime-susceptible Enterobacteriaceae assessed as susceptible isolate by broth microdilution method; type: functional
Escherichia coli [5] = assay: Antimicrobial activity against Non-ESBL Escherichia coli assessed as susceptible isolate by broth microdilution method; type: functional
Escherichia coli [6] = assay: Antimicrobial activity against ESBL producing Escherichia coli assessed as susceptible isolate by broth microdilution method; type: functional
Klebsiella pneumoniae [7] = assay: Antimicrobial activity against Klebsiella pneumoniae by broth microdilution method; type: functional
Klebsiella pneumoniae [8] = assay: Antimicrobial activity against ESBL producing Klebsiella pneumoniae by broth microdilution method; type: functional
Proteus mirabilis [9] = assay: Antimicrobial activity against Non-ESBL Proteus mirabilis by broth microdilution method; type: functional
Proteus mirabilis [10] = assay: Antimicrobial activity against ESBL producing Proteus mirabilis by broth microdilution method; type: functional
Proteus mirabilis [11] = assay: Antimicrobial activity against Proteus mirabilis assessed as susceptible isolate by broth microdilution method; type: functional
Pseudomonas aeruginosa [12] = assay: Antimicrobial activity against Pseudomonas aeruginosa isolated from non-ICU patient by broth microdilution method; type: functional
Pseudomonas aeruginosa [13] = assay: Antimicrobial activity against Pseudomonas aeruginosa isolated from ICU patient by broth microdilution method; type: functional
Proteus mirabilis [14] = assay: Antimicrobial activity against Non-ESBL Proteus mirabilis assessed as susceptible isolate by broth microdilution method; type: functional
Proteus mirabilis [15] = assay: Antimicrobial activity against ESBL producing Proteus mirabilis assessed as susceptible isolate by broth microdilution method; type: functional
Enterobacter cloacae [16] = assay: Antimicrobial activity against Enterobacter cloacae with nonderepressed AmpC beta-lactamsae by broth microdilution method; type: functional
Enterobacter cloacae [17] = assay: Antimicrobial activity against Enterobacter cloacae with derepressed AmpC beta-lactamsae by broth microdilution method; type: functional
Enterobacter cloacae [18] = assay: Antimicrobial activity against Enterobacter cloacae assessed as susceptible isolate by broth microdilution method; type: functional
Enterobacter cloacae [19] = assay: Antimicrobial activity against Enterobacter cloacae with derepressed AmpC beta-lactamsae assessed as susceptible isolate by broth microdilution method; type: functional
Citrobacter [20] = assay: Antimicrobial activity against Citrobacter by broth microdilution method; type: functional
Citrobacter [21] = assay: Antimicrobial activity against Citrobacter with derepressed AmpC beta-lactamsae by broth microdilution method; type: functional
Citrobacter [22] = assay: Antimicrobial activity against Citrobacter assessed as susceptible isolate by broth microdilution method; type: functional
Citrobacter [23] = assay: Antimicrobial activity against Citrobacter with derepressed AmpC beta-lactamsae assessed as susceptible isolate by broth microdilution method; type: functional
Serratia marcescens [24] = assay: Antimicrobial activity against Ceftazidime susceptible Serratia marcescens by broth microdilution method; type: functional
Serratia marcescens [25] = assay: Antimicrobial activity against Serratia marcescens assessed as susceptible isolate by broth microdilution method; type: functional
Serratia marcescens [26] = assay: Antimicrobial activity against Ceftazidime susceptible Serratia marcescens assessed as susceptible isolate by broth microdilution method; type: functional
Serratia marcescens [27] = assay: Antimicrobial activity against Ceftazidime non-susceptible Serratia marcescens assessed as susceptible isolate by broth microdilution method; type: functional
Pseudomonas aeruginosa [28] = assay: Antimicrobial activity against Pseudomonas aeruginosa by broth microdilution method; type: functional
Pseudomonas aeruginosa [29] = assay: Antimicrobial activity against Ceftazidime susceptible Pseudomonas aeruginosa by broth microdilution method; type: functional
Pseudomonas aeruginosa [30] = assay: Antimicrobial activity against imipenem susceptible Pseudomonas aeruginosa by broth microdilution method; type: functional
Pseudomonas aeruginosa [31] = assay: Antimicrobial activity against imipenem non-susceptible Pseudomonas aeruginosa by broth microdilution method; type: functional
Pseudomonas aeruginosa [32] = assay: Antimicrobial activity against Pseudomonas aeruginosa assessed as susceptible isolate by broth microdilution method; type: functional
Pseudomonas aeruginosa [33] = assay: Antimicrobial activity against Ceftazidime non-susceptible Pseudomonas aeruginosa assessed as susceptible isolate by broth microdilution method; type: functional
Pseudomonas aeruginosa [34] = assay: Antimicrobial activity against imipenem susceptible Pseudomonas aeruginosa assessed as susceptible isolate by broth microdilution method; type: functional
Pseudomonas aeruginosa [35] = assay: Antimicrobial activity against imipenem non-susceptible Pseudomonas aeruginosa assessed as susceptible isolate by broth microdilution method; type: functional
Acinetobacter = assay: Antimicrobial activity against Acinetobacter by broth microdilution method; type: functional
Staphylococcus aureus = assay: Antimicrobial activity against methicillin-susceptible Staphylococcus aureus by broth microdilution method; type: functional; settings: Staphylococcus aureus
Streptococcus pneumoniae = assay: Antimicrobial activity against penicillin-resistant Streptococcus pneumoniae by broth microdilution method; type: functional; settings: Streptococcus pneumoniae
Pseudomonas aeruginosa [36] = assay: Antimicrobial activity against Pseudomonas aeruginosa isolated from non-ICU patient by broth microdilution method

C[C@@H](O)[C@H]1C(=O)N2C(C(=O)O)=C(S[C@@H]3CN[C@H](CNS(N)(=O)=O)C3)[C@H](C)[C@H]12 [DORIPENEM]
MIC50 (Enterobacteriaceae [1]): 0.03 µg/mL (≈ 0.0713 µM) | MIC90 (Enterobacteriaceae [1]): 0.12 µg/mL (≈ 0.285 µM) | MIC50 (Enterobacteriaceae [2]): 0.03 µg/mL (≈ 0.0713 µM) | MIC90 (Enterobacteriaceae [2]): 0.12 µg/mL (≈ 0.285 µM) | Activity (Enterobacteriaceae [3]): 99.5% | Activity (Enterobacteriaceae [4]): 99.7% | Activity (Escherichia coli [5]): 99.8% | Activity (Escherichia coli [6]): 100% | MIC50 (Klebsiella pneumoniae [7]): 0.03 µg/mL (≈ 0.0713 µM) | MIC90 (Klebsiella pneumoniae [7]): 0.06 µg/mL (≈ 0.143 µM) | MIC50 (Klebsiella pneumoniae [8]): 0.03 µg/mL (≈ 0.0713 µM) | MIC90 (Klebsiella pneumoniae [8]): 0.12 µg/mL (≈ 0.285 µM) | MIC50 (Proteus mirabilis [9]): 0.12 µg/mL (≈ 0.285 µM) | MIC90 (Proteus mirabilis [9]): 0.5 µg/mL (≈ 1.19 µM) | MIC (Proteus mirabilis [10]): 0.06 µg/mL (≈ 0.143 µM) | Activity (Proteus mirabilis [11]): 98.9% | MIC50 (Pseudomonas aeruginosa [12]): 0.25 µg/mL (≈ 0.595 µM) | MIC90 (Pseudomonas aeruginosa [12]): 4 µg/mL (≈ 9.51 µM) | MIC50 (Pseudomonas aeruginosa [13]): 0.5 µg/mL (≈ 1.19 µM) | MIC90 (Pseudomonas aeruginosa [13]): 8 µg/mL (≈ 19 µM) | Activity (Proteus mirabilis [14]): 98.9% | Activity (Proteus mirabilis [15]): 100% | MIC50 (Enterobacter cloacae [16]): 0.03 µg/mL (≈ 0.0713 µM) | MIC90 (Enterobacter cloacae [16]): 0.06 µg/mL (≈ 0.143 µM) | MIC50 (Enterobacter cloacae [17]): 0.12 µg/mL (≈ 0.285 µM) | MIC90 (Enterobacter cloacae [17]): 0.25 µg/mL (≈ 0.595 µM) | Activity (Enterobacter cloacae [18]): 99.2% | Activity (Enterobacter cloacae [19]): 99% | MIC50 (Citrobacter [20]): 0.03 µg/mL (≈ 0.0713 µM) | MIC90 (Citrobacter [20]): 0.06 µg/mL (≈ 0.143 µM) | MIC50 (Citrobacter [21]): 0.06 µg/mL (≈ 0.143 µM) | MIC90 (Citrobacter [21]): 0.06 µg/mL (≈ 0.143 µM) | Activity (Citrobacter [22]): 99.8% | Activity (Citrobacter [23]): 100% | MIC50 (Serratia marcescens [24]): 0.12 µg/mL (≈ 0.285 µM) | MIC90 (Serratia marcescens [24]): 0.25 µg/mL (≈ 0.595 µM) | Activity (Serratia marcescens [25]): 98.7% | Activity (Serratia marcescens [26]): 98.6% | Activity (Serratia marcescens [27]): 100% | MIC50 (Pseudomonas aeruginosa [28]): 0.25 µg/mL (≈ 0.595 µM) | MIC90 (Pseudomonas aeruginosa [28]): 4 µg/mL (≈ 9.51 µM) | MIC50 (Pseudomonas aeruginosa [29]): 0.25 µg/mL (≈ 0.595 µM) | MIC90 (Pseudomonas aeruginosa [29]): 2 µg/mL (≈ 4.76 µM) | MIC50 (Pseudomonas aeruginosa [30]): 0.25 µg/mL (≈ 0.595 µM) | MIC90 (Pseudomonas aeruginosa [30]): 1 µg/mL (≈ 2.38 µM) | MIC50 (Pseudomonas aeruginosa [31]): 2 µg/mL (≈ 4.76 µM) | MIC90 (Pseudomonas aeruginosa [31]): 16 µg/mL (≈ 38 µM) | Activity (Pseudomonas aeruginosa [32]): 88.3% | Activity (Pseudomonas aeruginosa [33]): 60.9% | Activity (Pseudomonas aeruginosa [34]): 98.5% | Activity (Pseudomonas aeruginosa [35]): 55.6% | MIC50 (Acinetobacter): 0.5 µg/mL (≈ 1.19 µM) | MIC90 (Acinetobacter): 32 µg/mL (≈ 76.1 µM) | MIC50 (Staphylococcus aureus; read-out: MIC50): 0.03 µg/mL (≈ 0.0713 µM) | MIC90 (Staphylococcus aureus; read-out: MIC90): 0.06 µg/mL (≈ 0.143 µM) | MIC50 (Streptococcus pneumoniae; read-out: MIC50): 0.5 µg/mL (≈ 1.19 µM) | MIC90 (Streptococcus pneumoniae; read-out: MIC90): 1 µg/mL (≈ 2.38 µM) | Activity (Pseudomonas aeruginosa [36]): 87.9%
